This assay has as its target T1, human H1 receptor (Homo sapiens, UniProt P35367).
T1 construct: expressed in transfected cells; host or cells: CHO cells (crude membranes)
Nature of the assay: Human histamine H1 receptor binding assay. The conditions noted are these: competition with 1.5 nM [pyridinyl-5-3H] Pyrilamine, crude membranes of CHO cells transfected with human H1 receptor; Ki from IC50 by Cheng-Prusoff. As to the method:
Compounds of the present invention may be evaluated for binding to the histamine H1 receptor by a standard binding assay. […] Pyrilamine (˜30 Ci/mmol, Amersham TRK608) in the presence of varying concentrations of competing ligand. Non-specific binding is determined in the presence of excess (1 μM) doxepin. Bound and free ligand are separated by rapid vacuum filtration using a Packard 96-well cell harvester onto UniFilter GF/C filter plates (PerkinElmer) that has been pretreated with 1% polyethyleneimine. The filter plates are then washed with 600 μl phosphate buffered saline containing 0.01% (v/v) Triton-X100. Bound radioligand is determined by scintillation counting using a TopCount-NXT (Packard). Binding data is analyzed by nonlinear, least-squares curve fitting algorithms using GraphPad Prism (GraphPad Software, Inc. San Diego, Calif.) or ActivityBase (IDBS, Guildford, Surrey, UK).

Experimental findings from patent US7393865B2, “Sleep inducing compounds and methods relating thereto” (Neurocrine Biosciences, Inc., priority 2004, dated 2008) are described below.

pKi: −log10 of the molar value.

T1 sequence (P35367 whole entry): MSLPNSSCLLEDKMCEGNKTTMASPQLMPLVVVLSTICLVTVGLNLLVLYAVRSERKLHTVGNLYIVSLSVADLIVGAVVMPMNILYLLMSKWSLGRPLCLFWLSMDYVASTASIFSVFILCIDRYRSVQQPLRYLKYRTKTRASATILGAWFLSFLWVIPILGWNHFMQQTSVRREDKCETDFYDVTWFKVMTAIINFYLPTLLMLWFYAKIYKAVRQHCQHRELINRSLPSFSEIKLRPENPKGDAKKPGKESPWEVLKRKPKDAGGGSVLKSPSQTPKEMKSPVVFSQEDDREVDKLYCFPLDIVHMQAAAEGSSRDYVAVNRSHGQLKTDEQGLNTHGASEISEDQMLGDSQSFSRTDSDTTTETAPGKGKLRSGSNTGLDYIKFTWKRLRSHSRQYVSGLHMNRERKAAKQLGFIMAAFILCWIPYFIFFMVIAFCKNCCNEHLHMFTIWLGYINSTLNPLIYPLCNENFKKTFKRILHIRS

Consider `COc1ncccc1[C@H](C)c1c(CCN(C)C)sc2ccccc12` [Compound 15-6, Dimethyl-(2-{3-[(S)-1-(2-methoxy-pyridin-3-yl)-ethyl]-benzo[b]thiophen-2-yl}-ethyl)-amine], for which the pKi was ≥ 6.00. As for `CC(c1cccnc1F)c1c(CCN(C)C)sc2ccccc12` (stereo not shown) [Compound 15-7, Dimethyl-(2-{3-[1-(2-fluoro-pyridin-3-yl)-ethyl]-benzo[b]thiophen-2-yl}-ethyl)-amine], the figure is ≥ 6.00. Next, `C[C@H](c1cccnc1F)c1c(CCN(C)C)sc2ccccc12` [Compound 15-8, Dimethyl-(2-{3-[(R)-1-(2-fluoro-pyridin-3-yl)-ethyl]-benzo[b]thiophen-2-yl}-ethyl)-amine]: ≥ 6.00; `C[C@@H](c1cccnc1F)c1c(CCN(C)C)sc2ccccc12` [Compound 15-9, Dimethyl-(2-{3-[(S)-1-(2-fluoro-pyridin-3-yl)-ethyl]-benzo[b]thiophen-2-yl}-ethyl)-amine]: ≥ 6.00; `CC(c1cscn1)c1c(CCN(C)C)sc2ccccc12` (stereo not shown) [Compound 16-2, Dimethyl-{2-[3-(1-thiazol-4-yl-ethyl)-benzo[b]thiophen-2-yl]-ethyl}-amine]: ≥ 6.00. On to `C[C@@H](c1cscn1)c1c(CCN(C)C)sc2ccccc12` [Compound 16-3, Dimethyl-{2-[3-((R)-1-thiazol-4-yl-ethyl)-benzo[b]thiophen-2-yl]-ethyl}-amine], for which the pKi was ≥ 6.00.

In the case of `CC(c1cncs1)c1c(CCN(C)C)sc2ccccc12` (stereo not shown) [Compound 17-2, Dimethyl-{2-[3-(1-thiazol-5-yl-ethyl)-benzo[b]thiophen-2-yl]-ethyl}-amine], the pKi was ≥ 6.00. In the case of `C[C@@H](c1cncs1)c1c(CCN(C)C)sc2ccccc12` [Compound 17-3, Dimethyl-{2-[3-((R)-1-thiazol-5-yl-ethyl)-benzo[b]thiophen-2-yl]-ethyl}-amine], the pKi was ≥ 6.00. Next, `C[C@H](c1cncs1)c1c(CCN(C)C)sc2ccccc12` [Compound 17-4, Dimethyl-{2-[3-((S)-1-thiazol-5-yl-ethyl)-benzo[b]thiophen-2-yl]-ethyl}-amine]: ≥ 6.00.

As for `CC(c1ncccc1F)c1c(CCN(C)C)sc2ccccc12` (stereo not shown) [Compound 18-3, (2-{3-[1-(3-Fluoro-pyridin-2-yl)-ethyl]-benzo[b]thiophen-2-yl}-ethyl)-dimethyl-amine], the pKi is ≥ 6.00. Consider `C[C@@H](c1ncccc1F)c1c(CCN(C)C)sc2ccccc12` [Compound 18-4, (2-{3-[(R)-1-(3-Fluoro-pyridin-2-yl)-ethyl]-benzo[b]thiophen-2-yl}-ethyl)-dimethyl-amine], for which the pKi is ≥ 6.00. As to `C[C@H](c1ncccc1F)c1c(CCN(C)C)sc2ccccc12` [Compound 18-5, (2-{3-[(S)-1-(3-Fluoro-pyridin-2-yl)-ethyl]-benzo[b]thiophen-2-yl}-ethyl)-dimethyl-amine], the pKi was ≥ 6.00.

As to `CC(c1cscn1)c1c(CCN2CCCC2)sc2ccccc12` (stereo not shown) [Compound 19-4, 4-{1-[2-(2-Pyrrolidin-1-yl-ethyl)-benzo[b]thiophen-3-yl]-ethyl}-thiazole], the pKi is ≥ 6.00. As for `C[C@@H](c1cscn1)c1c(CCN2CCCC2)sc2ccccc12` [Compound 19-5, 4-{(R)-1-[2-(2-Pyrrolidin-1-yl-ethyl)-benzo[b]thiophen-3-yl]-ethyl}-thiazole], the figure is ≥ 6.00; as for `C[C@H](c1cscn1)c1c(CCN2CCCC2)sc2ccccc12` [Compound 19-6, 4-{(S)-1-[2-(2-Pyrrolidin-1-yl-ethyl)-benzo[b]thiophen-3-yl]-ethyl}-thiazole], ≥ 6.00. Turning to `CC(c1ccccn1)c1c(CCN2CCCC2)sc2ccccc12` (stereo not shown) [Compound 20-1, 2-{1-[2-(2-Pyrrolidin-1-yl-ethyl)-benzo[b]thiophen-3-yl]-ethyl}-pyridine], the pKi is ≥ 6.00.

Regarding `C[C@H](c1ccccn1)c1c(CCN2CCCC2)sc2ccccc12` [Compound 20-2, 2-{(S)-1-[2-(2-Pyrrolidin-1-yl-ethyl)-benzo[b]thiophen-3-yl]-ethyl}-pyridine], the pKi is ≥ 6.00. As for `C[C@@H](c1ccccn1)c1c(CCN2CCCC2)sc2ccccc12` [Compound 20-3, 2-{(R)-1-[2-(2-Pyrrolidin-1-yl-ethyl)-benzo[b]thiophen-3-yl]-ethyl}-pyridine], the figure is ≥ 6.00. Next, `CC(c1ccccn1)c1c(CCN2CCC(O)C2)sc2ccccc12` (stereo not shown) [Compound 20-6, 1-{2-[3-(1-Pyridin-2-yl-ethyl)-benzo[b]thiophen-2-yl]-ethyl}-pyrrolidin-3-ol]: ≥ 6.00; `CC(c1ccccn1)c1c(CCN2CCC2)sc2ccccc12` (stereo not shown) [Compound 20-7, 2-{1-[2-(2-Azetidin-1-yl-ethyl)-benzo[b]thiophen-3-yl]-ethyl}-pyridine]: ≥ 6.00; `C[C@@H](c1ccccn1)c1c(CCN2CCC2)sc2ccccc12` [Compound 20-8, 2-{(R)-1-[2-(2-Azetidin-1-yl-ethyl)-benzo[b]thiophen-3-yl]-ethyl}-pyridine]: ≥ 6.00. Regarding `C[C@H](c1ccccn1)c1c(CCN2CCC2)sc2ccccc12` [Compound 20-9, 2-{(S)-1-[2-(2-Azetidin-1-yl-ethyl)-benzo[b]thiophen-3-yl]-ethyl}-pyridine], the pKi was ≥ 6.00. Next, `CNCCc1sc2ccccc2c1[C@@H](C)c1ccccn1` [Compound 21-1, Methyl-{2-[3-((R)-1-pyridin-2-yl-ethyl)-benzo[b]thiophen-2-yl]-ethyl}-amine]: ≥ 6.00.

With `CN(C)CCc1sc2ccccc2c1Cc1cccnc1F` [Compound 24-2, {2-[3-(2-Fluoro-pyridin-3-ylmethyl)-benzo[b]thiophen-2-yl]-ethyl}-dimethyl-amine], the pKi was ≥ 6.00. As for `CC(c1cccnc1Cl)c1c(CCN(C)C)sc2ccccc12` (stereo not shown) [Compound 25-4, (2-{3-[1-(2-Chloro-pyridin-3-yl)-ethyl]-benzo[b]thiophen-2-yl}-ethyl)-dimethyl-amine], the pKi is ≥ 6.00.

Usually pKi stands for the Ki on a negative log10 scale, so that one unit is a factor of ten. Read a low pKi as a large Ki.
